{"source": "ChEMBL document CHEMBL2384934", "about": "“Discovery of 3-phenyl-1H-5-pyrazolylamine derivatives containing a urea pharmacophore as potent and efficacious inhibitors of FMS-like tyrosine kinase-3 (FLT3)” (Bioorg Med Chem, 2013)", "key": {"[1]": {"molecular_target": "Tyrosine-protein kinase JAK1 (Homo sapiens) (UniProt P23458)", "assay": "Inhibition of JAK1 (unknown origin) at 1 uM"}, "[2]": {"molecular_target": "Receptor tyrosine-protein kinase erbB-2 (Homo sapiens) (UniProt P04626)", "assay": "Inhibition of ERBB2 (unknown origin) at 1 uM"}, "MOLM-13 [3]": {"tested_on": "MOLM-13", "assay": "Antitumor activity against human MOLM13 cells xenografted in nu/nu mouse at 1mg/kg, iv qd administered on days 1 to 5 and days 8 to 12 measured for 5 days", "format": "functional, organism-based"}, "[4]": {"molecular_target": "Serine/threonine-protein kinase Chk1 (Homo sapiens) (UniProt O14757)", "sequence (O14757 whole entry)": "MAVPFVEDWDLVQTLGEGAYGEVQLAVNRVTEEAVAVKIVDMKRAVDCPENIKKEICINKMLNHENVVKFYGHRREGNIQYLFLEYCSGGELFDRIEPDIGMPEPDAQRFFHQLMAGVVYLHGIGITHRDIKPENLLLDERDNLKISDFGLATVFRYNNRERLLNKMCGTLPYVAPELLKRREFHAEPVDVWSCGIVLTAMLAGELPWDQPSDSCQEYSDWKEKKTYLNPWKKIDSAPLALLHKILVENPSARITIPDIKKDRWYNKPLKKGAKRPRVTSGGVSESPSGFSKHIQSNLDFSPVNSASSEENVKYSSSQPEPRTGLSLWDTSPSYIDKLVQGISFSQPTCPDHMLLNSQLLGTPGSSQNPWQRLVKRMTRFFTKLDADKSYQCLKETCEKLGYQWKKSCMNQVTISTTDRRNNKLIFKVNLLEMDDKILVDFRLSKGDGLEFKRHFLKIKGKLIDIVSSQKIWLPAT", "assay": "Inhibition of CHK1 (unknown origin) at 1 uM by kinase Glo assay"}, "[5]": {"assay": "Half life in Sprague-Dawley rat at 2 mg/kg, iv", "format": "ADME, organism-based", "parameters": "dose 2 mg/kg, route intravenous", "details": "in vivo"}, "Mus musculus [6]": {"tested_on": "Mus musculus", "assay": "Toxicity in mouse assessed as loss of body weight at 25 mg/kg, iv for 5 days", "format": "organism-based", "parameters": "dose 25 mg/kg, route intravenous", "details": "in vivo, 120 h"}, "[7]": {"molecular_target": "Receptor-type tyrosine-protein kinase FLT3 (Homo sapiens, UniProt P36888, ITD)", "sequence (P36888 whole entry, looked up, change not shown)": "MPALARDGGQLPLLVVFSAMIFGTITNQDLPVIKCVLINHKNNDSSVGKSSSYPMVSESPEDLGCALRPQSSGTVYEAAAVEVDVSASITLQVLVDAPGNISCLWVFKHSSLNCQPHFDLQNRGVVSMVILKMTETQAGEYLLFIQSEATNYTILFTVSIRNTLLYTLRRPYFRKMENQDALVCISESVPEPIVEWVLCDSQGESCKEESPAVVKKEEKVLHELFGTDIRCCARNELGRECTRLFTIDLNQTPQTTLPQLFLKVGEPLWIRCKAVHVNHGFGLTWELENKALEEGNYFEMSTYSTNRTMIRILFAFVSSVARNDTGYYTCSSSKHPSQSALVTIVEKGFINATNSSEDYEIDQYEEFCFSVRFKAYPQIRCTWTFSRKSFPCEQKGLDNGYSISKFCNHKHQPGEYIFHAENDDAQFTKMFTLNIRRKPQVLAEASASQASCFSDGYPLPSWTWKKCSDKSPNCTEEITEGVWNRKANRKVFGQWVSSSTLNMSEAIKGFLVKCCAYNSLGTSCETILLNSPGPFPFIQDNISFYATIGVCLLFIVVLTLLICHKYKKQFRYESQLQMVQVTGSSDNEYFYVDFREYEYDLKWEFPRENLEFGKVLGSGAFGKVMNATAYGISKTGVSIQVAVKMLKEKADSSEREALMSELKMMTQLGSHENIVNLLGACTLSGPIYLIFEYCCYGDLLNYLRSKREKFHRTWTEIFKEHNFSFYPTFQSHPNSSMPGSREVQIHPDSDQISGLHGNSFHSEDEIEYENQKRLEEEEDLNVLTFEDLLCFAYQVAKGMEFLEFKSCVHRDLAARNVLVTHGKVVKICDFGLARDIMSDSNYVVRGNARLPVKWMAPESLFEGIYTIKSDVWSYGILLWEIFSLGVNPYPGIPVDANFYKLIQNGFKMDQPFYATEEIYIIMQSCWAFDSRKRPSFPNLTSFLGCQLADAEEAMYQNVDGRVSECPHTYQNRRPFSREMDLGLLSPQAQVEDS", "assay": "Inhibition of FLT3/ITD mutant phosphorylation in human MV4-11 cells after 1 hr by Western blot analysis", "format": "cell-based"}, "cells": {"assay": "cells", "details": "Homo sapiens, RS4-11, 72 h", "description": "Cytotoxicity against human RS4:11 cells harboring wild type FLT3 after 72 hrs by MTS assay"}, "[8]": {"molecular_target": "Macrophage colony-stimulating factor 1 receptor (Homo sapiens) (UniProt P07333)", "sequence (P07333 whole entry)": "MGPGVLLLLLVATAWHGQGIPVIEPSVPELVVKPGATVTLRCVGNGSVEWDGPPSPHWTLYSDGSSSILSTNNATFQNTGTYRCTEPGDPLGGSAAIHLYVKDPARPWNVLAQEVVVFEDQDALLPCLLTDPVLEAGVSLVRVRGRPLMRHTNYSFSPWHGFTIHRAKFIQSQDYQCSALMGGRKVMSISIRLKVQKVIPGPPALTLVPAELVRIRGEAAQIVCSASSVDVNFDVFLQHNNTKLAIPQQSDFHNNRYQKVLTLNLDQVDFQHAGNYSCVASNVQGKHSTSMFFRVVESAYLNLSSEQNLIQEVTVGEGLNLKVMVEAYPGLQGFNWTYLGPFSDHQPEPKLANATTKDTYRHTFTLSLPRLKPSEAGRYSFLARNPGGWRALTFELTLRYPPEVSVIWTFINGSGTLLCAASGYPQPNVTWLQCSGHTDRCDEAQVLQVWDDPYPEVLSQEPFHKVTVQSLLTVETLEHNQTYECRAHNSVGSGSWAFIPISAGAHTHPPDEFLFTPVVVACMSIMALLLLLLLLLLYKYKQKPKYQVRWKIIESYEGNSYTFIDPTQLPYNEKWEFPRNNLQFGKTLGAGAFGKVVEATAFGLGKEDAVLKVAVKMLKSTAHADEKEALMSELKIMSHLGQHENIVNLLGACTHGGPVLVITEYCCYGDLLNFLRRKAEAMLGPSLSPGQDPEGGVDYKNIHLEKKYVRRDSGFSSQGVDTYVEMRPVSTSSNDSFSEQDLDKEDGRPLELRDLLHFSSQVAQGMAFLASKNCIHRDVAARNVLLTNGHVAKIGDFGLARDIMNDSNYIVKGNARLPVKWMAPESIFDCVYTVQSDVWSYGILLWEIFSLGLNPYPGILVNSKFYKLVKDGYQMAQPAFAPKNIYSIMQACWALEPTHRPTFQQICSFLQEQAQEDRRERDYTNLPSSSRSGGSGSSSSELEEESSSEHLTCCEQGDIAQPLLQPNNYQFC", "assay": "Inhibition of CSF1R (unknown origin) at 1 uM"}, "[9]": {"molecular_target": "Dual specificity mitogen-activated protein kinase kinase 1 (Homo sapiens) (UniProt Q02750)", "assay": "Inhibition of MAP2K1 (unknown origin) at 1 uM"}, "MOLM-13 [10]": {"tested_on": "MOLM-13", "assay": "Antitumor activity against human MOLM13 cells xenografted in nu/nu mouse at 10 mg/kg, iv qd administered on days 1 to 5 and day 8 to 12 measured after 48 days", "format": "functional", "details": "read-out: TGI"}, "[11]": {"molecular_target": "Serine/threonine-protein kinase Chk2 (Homo sapiens) (UniProt O96017)", "assay": "Inhibition of CHK2 (unknown origin) at 1 uM by kinase Glo assay"}, "[12]": {"molecular_target": "Receptor-type tyrosine-protein kinase FLT3 (Homo sapiens) (UniProt P36888)", "sequence (P36888 whole entry)": "as the sequence (P36888 whole entry, looked up, change not shown) above", "assay": "Inhibition of FLT3 (unknown origin) at 1 uM"}, "[13]": {"molecular_target": "Mitogen-activated protein kinase 8 (Homo sapiens) (UniProt P45983)", "assay": "Inhibition of MAPK8 (unknown origin) at 1 uM"}, "[14]": {"molecular_target": "Inhibitor of nuclear factor kappa-B kinase subunit beta (Homo sapiens) (UniProt O14920)", "assay": "Inhibition of IKBKB (unknown origin) at 1 uM"}, "[15]": {"molecular_target": "Non-receptor tyrosine-protein kinase TYK2 (Homo sapiens) (UniProt P29597)", "assay": "Inhibition of TYK2 (unknown origin) at 1 uM"}, "[16]": {"molecular_target": "T1, AMP-activated protein kinase (AMPK) alpha-1/beta-1/gamma-1 (Homo sapiens) (UniProt P54619+Q9Y478+Q13131)", "T1 sequence (P54619 whole entry)": "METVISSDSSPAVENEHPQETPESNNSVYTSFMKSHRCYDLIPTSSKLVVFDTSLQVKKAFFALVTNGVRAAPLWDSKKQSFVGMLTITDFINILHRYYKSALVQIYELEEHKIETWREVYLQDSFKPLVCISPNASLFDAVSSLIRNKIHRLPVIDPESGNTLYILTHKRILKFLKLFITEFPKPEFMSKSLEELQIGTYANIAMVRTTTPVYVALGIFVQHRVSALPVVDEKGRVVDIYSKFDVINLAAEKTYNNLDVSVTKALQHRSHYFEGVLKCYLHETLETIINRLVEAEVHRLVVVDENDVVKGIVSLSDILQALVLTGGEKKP", "T1 sequence (Q13131 whole entry partner)": "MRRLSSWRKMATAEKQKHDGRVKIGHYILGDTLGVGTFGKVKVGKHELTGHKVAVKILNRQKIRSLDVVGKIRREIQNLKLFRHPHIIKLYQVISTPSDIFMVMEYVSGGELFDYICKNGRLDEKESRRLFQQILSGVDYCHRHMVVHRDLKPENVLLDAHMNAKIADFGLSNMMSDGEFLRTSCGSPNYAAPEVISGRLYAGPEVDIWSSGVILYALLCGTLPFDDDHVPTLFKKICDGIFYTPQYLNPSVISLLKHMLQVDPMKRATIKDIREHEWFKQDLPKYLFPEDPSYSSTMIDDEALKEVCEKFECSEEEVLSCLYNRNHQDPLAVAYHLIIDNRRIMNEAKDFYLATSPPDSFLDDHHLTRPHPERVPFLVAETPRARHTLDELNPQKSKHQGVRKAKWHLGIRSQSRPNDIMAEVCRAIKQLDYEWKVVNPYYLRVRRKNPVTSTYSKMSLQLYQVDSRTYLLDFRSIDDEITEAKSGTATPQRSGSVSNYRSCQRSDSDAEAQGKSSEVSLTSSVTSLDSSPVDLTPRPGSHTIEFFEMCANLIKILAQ", "T1 sequence (Q9Y478 2-270 partner limits assumed)": "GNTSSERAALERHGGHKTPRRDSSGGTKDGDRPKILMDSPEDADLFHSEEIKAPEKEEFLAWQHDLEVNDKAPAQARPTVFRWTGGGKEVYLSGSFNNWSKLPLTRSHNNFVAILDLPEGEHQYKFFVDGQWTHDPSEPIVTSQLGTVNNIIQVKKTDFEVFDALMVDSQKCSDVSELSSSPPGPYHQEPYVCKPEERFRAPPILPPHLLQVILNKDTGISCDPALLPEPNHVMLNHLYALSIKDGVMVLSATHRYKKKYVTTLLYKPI", "assay": "Inhibition of AMPK A1/B1/G1 (unknown origin) at 1 uM by kinase Glo assay", "format": "protein-complex assay"}, "[17]": {"molecular_target": "Angiopoietin-1 receptor (Homo sapiens) (UniProt Q02763)", "assay": "Inhibition of TEK (unknown origin) at 1 uM"}, "[18]": {"molecular_target": "Serine/threonine-protein kinase mTOR (Homo sapiens) (UniProt P42345)", "assay": "Inhibition of FRAP1 (unknown origin) at 1 uM by kinase Glo assay"}, "[19]": {"assay": "Volume of distribution at steady state in Sprague-Dawley rat at 2 mg/kg, iv", "format": "ADME, organism-based", "parameters": "dose 2 mg/kg, route intravenous", "details": "in vivo, read-out: Vdss"}, "[20]": {"molecular_target": "Fibroblast growth factor receptor 1 (Homo sapiens) (UniProt P11362)", "assay": "Inhibition of FGFR1 (unknown origin) at 1 uM"}, "Aurora kinase A": {"molecular_target": "T2, Aurora kinase A (Homo sapiens, UniProt O14965)", "T2 sequence (O14965 whole entry)": "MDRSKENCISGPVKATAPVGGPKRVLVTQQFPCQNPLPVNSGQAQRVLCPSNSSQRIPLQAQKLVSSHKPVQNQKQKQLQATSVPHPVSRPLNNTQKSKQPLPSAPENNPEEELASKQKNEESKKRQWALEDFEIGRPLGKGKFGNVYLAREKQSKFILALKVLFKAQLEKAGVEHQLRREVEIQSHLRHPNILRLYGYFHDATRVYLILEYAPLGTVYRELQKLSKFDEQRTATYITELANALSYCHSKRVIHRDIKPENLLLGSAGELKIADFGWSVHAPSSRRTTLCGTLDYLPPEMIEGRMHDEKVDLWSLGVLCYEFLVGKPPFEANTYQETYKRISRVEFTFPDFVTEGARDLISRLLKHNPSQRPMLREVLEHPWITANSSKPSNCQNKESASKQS", "assay": "biochemical", "description": "Inhibition of recombinant GST tagged Aurora A kinase (123 to 401) (unknown origin) transfected in insect sf9 cells after 90 mins by wallac counting analysis"}, "[21]": {"molecular_target": "Tyrosine-protein kinase JAK2 (Homo sapiens) (UniProt O60674)", "assay": "Inhibition of JAK2 (unknown origin) at 1 uM"}, "[22]": {"molecular_target": "Tyrosine-protein kinase ABL1 (Homo sapiens) (UniProt P00519)", "assay": "Inhibition of ABL1 (unknown origin) at 1 uM"}, "[23]": {"molecular_target": "Hepatocyte growth factor receptor (Homo sapiens) (UniProt P08581)", "assay": "Inhibition of MET (unknown origin) at 1 uM by kinase Glo assay"}, "Mus musculus [24]": {"tested_on": "Mus musculus", "assay": "Toxicity in nu/nu mouse xenografted with human MOLM13 cells at 1 to 10 mg/kg, iv qd administered on days 1 to 5 and day 8 to 12", "format": "organism-based, MOLM-13", "parameters": "route intravenous", "details": "in vivo"}, "Mus musculus [25]": {"tested_on": "Mus musculus", "assay": "Toxicity in mouse assessed as mortality at 25 mg/kg, iv for 5 days", "format": "organism-based", "parameters": "dose 25 mg/kg, route intravenous", "details": "in vivo, 120 h"}, "[26]": {"molecular_target": "Ribosomal protein S6 kinase beta-1 (Homo sapiens) (UniProt P23443)", "assay": "Inhibition of RPS6KB1 (unknown origin) at 1 uM"}, "[27]": {"molecular_target": "T1, AMP-activated protein kinase (AMPK) alpha-1/beta-1/gamma-1 (Homo sapiens)", "assay": "Inhibition of Ampk A1/B1/G1 (unknown origin) at 1 uM", "format": "protein-complex assay"}, "MV4-11": {"tested_on": "MV4-11", "assay": "Cytotoxicity against human MV4-11 cells harboring FLT3/ITD mutant after 72 hrs by MTS assay", "format": "functional", "details": "MV4-11, 72 h"}, "[28]": {"molecular_target": "Inhibitor of nuclear factor kappa-B kinase subunit epsilon (Homo sapiens) (UniProt Q14164)", "assay": "Inhibition of IKBKE (unknown origin) at 1 uM"}, "U-937": {"tested_on": "U-937", "assay": "cells", "details": "Homo sapiens, U-937, 72 h", "description": "Cytotoxicity against human FLT3 negative U937 cells after 72 hrs by MTS assay"}, "K562": {"tested_on": "K562", "assay": "cells", "details": "Homo sapiens, K562, 72 h", "description": "Cytotoxicity against human FLT3-negative K562 cells harboring wild type BCR/ABL after 72 hrs by MTS assay"}, "[29]": {"molecular_target": "Vascular endothelial growth factor receptor 3 (Homo sapiens) (UniProt P35916)", "sequence (P35916 whole entry)": "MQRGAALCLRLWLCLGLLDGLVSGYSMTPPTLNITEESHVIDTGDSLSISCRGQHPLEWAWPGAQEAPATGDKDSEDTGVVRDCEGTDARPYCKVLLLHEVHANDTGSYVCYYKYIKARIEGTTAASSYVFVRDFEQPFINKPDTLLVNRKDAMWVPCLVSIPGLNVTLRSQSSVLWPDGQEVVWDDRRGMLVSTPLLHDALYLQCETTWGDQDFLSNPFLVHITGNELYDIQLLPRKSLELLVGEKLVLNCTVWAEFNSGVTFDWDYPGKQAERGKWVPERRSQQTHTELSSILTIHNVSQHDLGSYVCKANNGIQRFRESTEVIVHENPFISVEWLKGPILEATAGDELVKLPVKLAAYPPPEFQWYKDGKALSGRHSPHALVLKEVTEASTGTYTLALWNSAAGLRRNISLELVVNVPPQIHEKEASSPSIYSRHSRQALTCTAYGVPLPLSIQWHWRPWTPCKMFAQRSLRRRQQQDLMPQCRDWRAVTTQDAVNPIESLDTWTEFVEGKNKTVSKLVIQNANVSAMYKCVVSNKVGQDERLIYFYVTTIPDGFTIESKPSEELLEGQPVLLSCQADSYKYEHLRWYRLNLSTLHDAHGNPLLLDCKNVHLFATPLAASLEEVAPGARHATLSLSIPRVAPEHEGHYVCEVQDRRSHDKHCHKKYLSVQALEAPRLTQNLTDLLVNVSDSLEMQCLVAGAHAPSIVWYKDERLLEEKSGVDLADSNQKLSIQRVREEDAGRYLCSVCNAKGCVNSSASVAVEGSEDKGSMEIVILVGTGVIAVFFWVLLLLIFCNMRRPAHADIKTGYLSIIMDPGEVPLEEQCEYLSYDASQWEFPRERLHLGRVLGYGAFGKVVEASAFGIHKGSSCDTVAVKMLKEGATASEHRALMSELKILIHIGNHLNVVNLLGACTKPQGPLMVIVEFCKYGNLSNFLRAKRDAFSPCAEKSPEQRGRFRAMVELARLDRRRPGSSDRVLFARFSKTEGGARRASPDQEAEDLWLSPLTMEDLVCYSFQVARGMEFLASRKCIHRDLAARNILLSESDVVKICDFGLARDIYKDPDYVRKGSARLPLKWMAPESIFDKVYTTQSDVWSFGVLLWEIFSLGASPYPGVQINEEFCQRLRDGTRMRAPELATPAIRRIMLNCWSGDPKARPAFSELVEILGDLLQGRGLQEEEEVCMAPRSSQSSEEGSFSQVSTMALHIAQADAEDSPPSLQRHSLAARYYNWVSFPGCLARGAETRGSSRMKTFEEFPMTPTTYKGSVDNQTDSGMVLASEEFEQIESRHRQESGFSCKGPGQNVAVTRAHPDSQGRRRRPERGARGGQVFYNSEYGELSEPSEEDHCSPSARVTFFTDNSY", "assay": "Inhibition of FLT4 (unknown origin) at 1 uM by kinase Glo assay"}, "[30]": {"molecular_target": "Platelet-derived growth factor receptor alpha (Homo sapiens) (UniProt P16234)", "assay": "Inhibition of PDGFRA (unknown origin) at 1 uM by kinase Glo assay"}, "[31]": {"molecular_target": "Vascular endothelial growth factor receptor 1 (Homo sapiens) (UniProt P17948)", "assay": "Inhibition of FLT1 (unknown origin) at 1 uM"}, "MOLM-13 [32]": {"tested_on": "MOLM-13", "assay": "Antitumor activity against human MOLM13 cells xenografted in nu/nu mouse at 1mg/kg, iv qd administered on days 1 to 5 and days 8 to 12 measured on day 11", "format": "functional", "details": "MOLM-13, iv, 264 h, read-out: TGI"}}, "note": "Calls of active or inactive are those of the source. The calls are words filed in the database; no cut-off is given here.", "data": [{"smiles": "CC(C)(C)c1cc(NC(=O)NCc2ccc(-c3cc(NC(=O)c4ccc(OCCN5CCOCC5)cc4)[nH]n3)cc2)no1", "values": [{"measurement": "inhibition", "setting": "[1]", "value": 82, "unit": "%"}, {"measurement": "inhibition", "setting": "[2]", "value": -1, "unit": "%"}, {"measurement": "inhibition", "setting": "MOLM-13 [3]", "value": "Active"}, {"measurement": "inhibition", "setting": "[4]", "value": 2, "unit": "%"}, {"measurement": "half-life", "setting": "[5]", "value": 6.2, "unit": "h"}, {"measurement": "Activity", "setting": "Mus musculus [6]", "value": "Non-toxic"}, {"measurement": "IC50", "setting": "[7]", "value": 1, "unit": "nM"}, {"measurement": "GI50", "setting": "cells", "value": 900, "unit": "nM"}, {"measurement": "inhibition", "setting": "[8]", "value": 95, "unit": "%"}, {"measurement": "inhibition", "setting": "[9]", "value": 13, "unit": "%"}, {"measurement": "inhibition in vivo at 10 mg/kg", "setting": "MOLM-13 [10]", "value": 70, "unit": "%"}, {"measurement": "inhibition", "setting": "[11]", "value": 10, "unit": "%"}, {"measurement": "inhibition", "setting": "[12]", "value": 100, "unit": "%"}, {"measurement": "inhibition", "setting": "[13]", "value": -3, "unit": "%"}, {"measurement": "inhibition", "setting": "[14]", "value": -2, "unit": "%"}, {"measurement": "inhibition", "setting": "[15]", "value": 86, "unit": "%"}, {"measurement": "inhibition", "setting": "[16]", "value": 48, "unit": "%"}, {"measurement": "inhibition", "setting": "[17]", "value": 83, "unit": "%"}, {"measurement": "inhibition", "setting": "[18]", "value": -1, "unit": "%"}, {"measurement": "Vd", "setting": "[19]", "value": 3.6, "unit": "L/kg"}, {"measurement": "inhibition", "setting": "[20]", "value": 48, "unit": "%"}, {"measurement": "IC50", "setting": "Aurora kinase A", "value": "> 1000", "unit": "nM"}, {"measurement": "inhibition", "setting": "[21]", "value": 79, "unit": "%"}, {"measurement": "inhibition", "setting": "[22]", "value": 21, "unit": "%"}, {"measurement": "inhibition", "setting": "[23]", "value": 40, "unit": "%"}, {"measurement": "Activity", "setting": "Mus musculus [24]", "value": "Non-toxic"}, {"measurement": "Activity", "setting": "Mus musculus [25]", "value": "Non-toxic"}, {"measurement": "inhibition", "setting": "[26]", "value": 41, "unit": "%"}, {"measurement": "inhibition", "setting": "[27]", "value": 94, "unit": "%"}, {"measurement": "GI50", "setting": "MV4-11", "value": 2, "unit": "nM"}, {"measurement": "inhibition", "setting": "[28]", "value": -5, "unit": "%"}, {"measurement": "GI50", "setting": "U-937", "value": "> 20000", "unit": "nM"}, {"measurement": "GI50", "setting": "K562", "value": 11800, "unit": "nM"}, {"measurement": "inhibition", "setting": "[29]", "value": 86, "unit": "%"}, {"measurement": "inhibition", "setting": "[30]", "value": 85, "unit": "%"}, {"measurement": "inhibition", "setting": "[31]", "value": 99, "unit": "%"}, {"measurement": "inhibition in vivo at 1 mg/kg", "setting": "MOLM-13 [32]", "value": 66, "unit": "%"}]}]}
